Among the data in patent publication US10118930B2, “Piperidinylpyrazolopyrimidinones and their use” (BAYER PHARMA AKTIENGESELLSCHAFT, priority 2015, dated 2018) are IC50 values, retold here.

For the assay, the system named is clot lysis (fibrinolysis) in diluted human citrated plasma, tPA-induced. Briefly: Plasma-based clot lysis assay (5%). It counts as biochemical. The note with it: human citrated platelet-poor plasma 5%, fibrinogen 3 μM, CaCl2 10 mM, tPA 0.2 nM, 37° C., OD at 405 nm. In short, it runs like this:
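Compounds added to 5% platelet-poor citrated human plasma with 3 μM fibrinogen in 20 mM HEPES, 150 mM NaCl, 0.01% Brij, pH 7. Clotting and lysis started with 10 mM CaCl2 and 0.2 nM tPA at 37° C. IC50 derived by comparing time courses with a blank control reaction.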

Counter-ions that a name gives are not always drawn.

As usually defined, the IC50 is the concentration at which inhibition is half-maximal. Low values mean inhibition by little substance, high ones a need for much substance. For the molecule `COc1ccc(Cc2nnc(-c3cnn4c(C5CCNCC5)cc(=O)[nH]c34)o2)cc1F` [Example 447, 3-[5-(3-fluoro-4-methoxybenzyl)-1,3,4-oxadiazol-2-yl]-7-(piperidin-4-yl)pyrazolo[1,5-a]pyrimidin-5(4H)-one hydrochloride], the half-inhibitory concentration (IC50) was 14 nM.
With `Cc1ccccc1-c1csc(-c2cnn3c(C4CCNCC4)cc(=O)[nH]c23)n1` [Example 448, 3-[4-(2-methylphenyl)-1,3-thiazol-2-yl]-7-(piperidin-4-yl)pyrazolo[1,5-a]pyrimidin-5(4H)-one acetate], the IC50 (acetate) came out at 30 nM.
Take `C=C(C)c1cnn2c(C3CCNCC3)cc(=O)[nH]c12` [Example 449, 7-(piperidin-4-yl)-3-(prop-1-en-2-yl)pyrazolo[1,5-a]pyrimidin-5 (4H)-one hydrochloride]: half-maximal inhibition (IC50) required 55 nM. That is a double-digit nanomolar value.
For `O=C(c1cnn2c(C3CCNCC3)cc(=O)[nH]c12)C1CCCC1` [Example 451, 3-(cyclopentylcarbonyl)-7-(piperidin-4-yl)pyrazolo[1,5-a]pyrimidin-5(4H)-one hydrochloride], the IC50 worked out at 11 nM.
As to `CCC(C)C(=O)c1cnn2c(C3CCNCC3)cc(=O)[nH]c12` (stereo not drawn) [Example 452, 3-(2-methylbutanoyl)-7-(piperidin-4-yl)pyrazolo[1,5-a]pyrimidin-5 (4H)-one hydrochloride], half-maximal inhibition (IC50) was put at 8 nM.
On the same count and under the same terms, as for `O=C(c1cnn2c(C3CCNCC3)cc(=O)[nH]c12)C1CC1` [Example 453, 3-(cyclopropylcarbonyl)-7-(piperidin-4-yl)pyrazolo[1,5-a]pyrimidin-5(4H)-one hydrochloride], the figure is 8 nM; as for `COC(=O)c1c(C(F)(F)F)nn2c(C3CCNCC3)cc(=O)[nH]c12` [Example 454, Methyl 5-oxo-7-(piperidin-4-yl)-2-(trifluoromethyl)-4,5-dihydropyrazolo[1,5-a]pyrimidine-3-carboxylate hydrochloride], 34 nM; as for `CCOC(=O)c1c(SC)nn2c(C3CCNCC3)cc(=O)[nH]c12` [Example 455, Ethyl 2-(methylsulfanyl)-5-oxo-7-(piperidin-4-yl)-4,5-dihydropyrazolo[1,5-a]pyrimidine-3-carboxylate hydrochloride], 36 nM.
Turning to `CC(C)(C)C(=O)c1cnn2c(C3CCNCC3)cc(=O)[nH]c12` [Example 456, 3-(2,2-dimethylpropanoyl)-7-(piperidin-4-yl)pyrazolo[1,5-a]pyrimidin-5(4H)-one hydrochloride], it took 39 nM to reach half-maximal inhibition (IC50).
Still for that read-out and setting: as for `O=C(O)c1c(C(F)(F)F)nn2c(C3CCNCC3)cc(=O)[nH]c12` [Example 457, 5-oxo-7-(piperidin-4-yl)-2-(trifluoromethyl)-4,5-dihydropyrazolo[1,5-a]pyrimidine-3-carboxylic acid hydrochloride], the figure is 85 nM; as for `CCOC(=O)c1c(C(F)(F)F)nn2c(C3CCNCC3)cc(=O)[nH]c12` [Example 458, Ethyl 5-oxo-7-(piperidin-4-yl)-2-(trifluoromethyl)-4,5-dihydropyrazolo[1,5-a]pyrimidine-3-carboxylate hydrochloride], 130 nM.
Still for that read-out and setting: as for `CCCOC(=O)c1c(C(F)(F)F)nn2c(C3CCNCC3)cc(=O)[nH]c12` [Example 459, Propyl 5-oxo-7-(piperidin-4-yl)-2-(trifluoromethyl)-4,5-dihydropyrazolo[1,5-a]pyrimidine-3-carboxylate hydrochloride], the figure is 83 nM; as for `CC(C)OC(=O)c1c(C(F)(F)F)nn2c(C3CCNCC3)cc(=O)[nH]c12` [Example 460, Propan-2-yl 5-oxo-7-(piperidin-4-yl)-2-(trifluoromethyl)-4,5-dihydropyrazolo[1,5-a]pyrimidine-3-carboxylate hydrochloride], 59 nM.
Same read-out and setting: under `Cc1nn2c(C3CCNCC3)cc(=O)[nH]c2c1C(=O)OCC(C)(F)F` [Example 461, 2,2-difluoropropyl 2-methyl-5-oxo-7-(piperidin-4-yl)-4,5-dihydropyrazolo[1,5-a]pyrimidine-3-carboxylate hydrochloride] stands 61 nM.
Turning to `CC1(C)CCN(C(=O)c2cnn3c(C4CCNCC4)cc(=O)[nH]c23)C1` [Example 462, 3-[(3,3-dimethylpyrrolidin-1-yl)carbonyl]-7-(piperidin-4-yl)pyrazolo[1,5-a]pyrimidin-5 (4H)-one hydrochloride], 34 nM corresponded to half-maximal inhibition (IC50). Compared with the last molecule, the IC50 is about 1.8-fold lower.
`CC(F)(F)COC(=O)c1cnn2c(C3CCNCC3)cc(=O)[nH]c12` [Example 463, 2,2-difluoropropyl 5-oxo-7-(piperidin-4-yl)-4,5-dihydropyrazolo[1,5-a]pyrimidine-3-carboxylate hydrochloride] returned an IC50 of 51 nM.
The same measure, in the same setting: under `Cc1nn2c(C3CCNCC3)cc(=O)[nH]c2c1C(=O)OCCCF` [Example 464, 3-fluoropropyl 2-methyl-5-oxo-7-(piperidin-4-yl)-4,5-dihydropyrazolo[1,5-a]pyrimidine-3-carboxylate hydrochloride] stands 130 nM.
Same read-out and setting: under `Cc1nn2c(C3CCNCC3)cc(=O)[nH]c2c1C(=O)OCC(F)F` [Example 465, 2,2-difluoroethyl 2-methyl-5-oxo-7-(piperidin-4-yl)-4,5-dihydropyrazolo[1,5-a]pyrimidine-3-carboxylate hydrochloride] stands 40 nM; under `Cc1nn2c(C3CCNCC3)cc(=O)[nH]c2c1C(=O)OCCC(F)(F)F` [Example 466, 3,3,3-trifluoropropyl 2-methyl-5-oxo-7-(piperidin-4-yl)-4,5-dihydropyrazolo[1,5-a]pyrimidine-3-carboxylate hydrochloride], 85 nM; under `Cc1nn2c(C3CCNCC3)cc(=O)[nH]c2c1C(=O)OC(C)(C)C` [Example 468, Tert-butyl 2-methyl-5-oxo-7-(piperidin-4-yl)-4,5-dihydropyrazolo[1,5-a]pyrimidine-3-carboxylate hydrochloride], 39 nM.
Same read-out and setting: under `CSc1nn2c(C3CCNCC3)cc(=O)[nH]c2c1C(=O)O` [Example 469, 2-(methylsulfanyl)-5-oxo-7-(piperidin-4-yl)-4,5-dihydropyrazolo[1,5-a]pyrimidine-3-carboxylic acid hydrochloride] stands 160 nM.
